Assays:
[1] = system: MDCK1 (Madin–Darby canine kidney) cells; test: MTT antiproliferative assay, non-tumor MDCK1 cells; type: cell-based; details: Canis lupus familiaris, MDCK1, 72 h, mean ± SD of three independent experiments, normal cells
Experimental: (§1) The growth inhibition activity was assessed according to the slightly modified procedure performed at the National Cancer Institute, Developmental Therapeutics Program.
(§2) Examined compounds were dissolved in DMSO (1 × 10^−2 M). The experiments were carried out on seven human tumor cell lines and two normal cell lines. The following cell lines were used: HeLa (human cervical adenocarcinoma; purchased from ATCC), CaCo-2 (human colorectal adenocarcinoma), HuT78 (T-cell lymphoma), THP-1 (acute monocytic leukemia), SW620 (colorectal adenocarcinoma, metastatic), MDA-MB-231 (human breast adenocarcinoma), HL60 (promyelocytic leukemia cell line), foreskin fibroblast cells (BJ) and MDCK1 (Madine–Darby canine kidney fibroblast like cells). MDCK1 cells were used between 24 and 26 passages.
(§3) Adherent cells were cultured in the Dulbecco’s modified Eagle medium—DMEM (Gibco, EU) supplemented with 10 % heat-inactivated fetal bovine serum (FBS, Gibco, EU), 2 mM glutamine, and 100 U/0.1 mg penicillin/streptomycin. Cells on suspension were cultured in RPMI 1640 (Gibco, EU) medium supplemented with 10 % FBS (Gibco, EU), 2 mM glutamine, 1 mM sodium pyruvate, 10 mM HEPES. Cells were grown in humidified atmosphere under the conditions of 37 °C/5% of CO2 gas in the CO2 incubator (IGO 150 CELLlife^TM, JOUAN, Thermo Fisher Scientific, Waltham, MA, USA). A erythrosin B (Sigma-Aldrich, St. Louis, MO, USA) dye exclusion method was used to assess cell viability before plating.
(§4) Adherent cells (HeLa, CaCo-2, MCF-7 and MDCK-1) were plated in 96-well flat bottom plates (Greiner, Frickenhausen, Austria) at a concentration of 2 × 10^4 cells/mL. Suspension cells (THP-1 and HuT78) were plated in 96-well microtiter plates (Sarstead, Newton, USA) at a concentration of 1 × 10^5 cells/mL. Twenty-four hours later, cells were treated with test agents in […] 10-fold dilutions ([…] to 10^−4 M) and incubated for further 72 h. Working dilutions were freshly prepared on the day of testing. The solvent was also tested for eventual inhibitory activity by adjusting its concentration to be the same as in working concentrations. After 72 h of incubation, the cell growth rate was evaluated by performing the MTT assay, which detects dehydrogenase activity in viable cells. For this purpose, upon completion of the incubation period, growth medium was discarded and 50 μL of MTT was added to each well at a concentration of 5 mg/mL. After four hours of incubation at 37 °C, water insoluble MTT-formazan crystals were dissolved in 150 μL of dimethyl-sulfoxide (DMSO) for adherent cells, and in 10 % SDS with 0.01 M/L HCl for cells grown in suspension. The absorbance (OD, optical density) was measured on a microplate reader (iMark, BIO RAD, Hercules, CA, USA) at 595 nm.
(§5) Percent of life cells was calculated as follows: % = OD (sample)–OD (background)/OD (control)–OD (background) × 100.
(§6) Optical density (OD) of background for adherent cells is the OD of MTT solution and DMSO; OD (background) for suspension cells is OD of the culture medium with MTT and 10% SDS with 0.01 M/L HCl; OD (control) is the OD of the cells growth without tested compounds.
(§7) Calculation of GI50 value curves and QC analysis is performed by using the Excel tools and GraphPadPrism software (La Jolla, CA), v. 5.03. Briefly, individual concentration effect curves are generated by plotting the logarithm of the concentration of tested compounds(X) vs. corresponding percent inhibition values (Y) using least squares fit. The best fit GI50 values are calculated using Log (inhibitor) versus normalized response—Variable slope equation, where Y Ľ 100/(1 ţ 10 ((LogIC50 _ X) * HillSlope)). QC criteria parameters (Z0, S:B, R2, HillSlope) were checked for every GI50 curve.

human fibroblasts (BJ) = test: MTT antiproliferative assay, normal BJ fibroblasts; type: cell-based; details: Homo sapiens, Fibroblast, 72 h, MTT, mean ± SD of three independent experiments; normal cells
Experimental: as §1, §2, §3, §4, §5, §6, §7

[2] = system: HeLa (cervical adenocarcinoma) cells; test: MTT antiproliferative assay, HeLa; type: cell-based; details: Homo sapiens, 72 h, mean ± SD of three independent experiments
Experimental: as §1, §2, §3, §4, §5, §6, §7

[3] = system: CaCo-2 (colon adenocarcinoma) cells; test: MTT antiproliferative assay, CaCo-2; type: cell-based, human; details: Homo sapiens, Caco-2; 72 h, MTT, mean ± SD of three independent experiments
Experimental: as §1, §2, §3, §4, §5, §6
Calculation of GI50 value curves and QC analysis is performed by using the Excel tools and GraphPadPrism software (La Jolla, CA), v. 5.03. Briefly, individual concentration effect curves are generated by plotting the logarithm of the concentration of tested compounds(X) vs. corresponding percent inhibition values (Y) using least squares fit. […] QC criteria parameters (Z0, S:B, R2, HillSlope) were checked for every GI50 curve.

[4] = system: HuT78 (T-cell lymphoma) cells; test: MTT antiproliferative assay, HuT78; type: cell-based, human; details: for IC50: Homo sapiens, HuT78, 72 h, 72 h, MTT, mean ± SD of three independent experiments; for SI (BJ) HuT78: SI = IC50 BJ / IC50 HuT78; for SI (MDCK) HuT78: SI = IC50 MDCK1 / IC50 HuT78
Experimental: as §1, §2, §3, §4, §5, §6, §7

Row | SMILES | IC50 [1] [µM] | IC50 (human fibroblasts (BJ)) [µM] | IC50 [2] [µM] | IC50 [3] [µM] | IC50 [4] [µM] | melting point [°C] | SI (BJ) HuT78 [4] | SI (MDCK) HuT78 [4]
1 | COc1cc(-c2nc3ccc(F)cc3s2)ccc1OCc1cn(Cc2ccccc2)nn1 [25c, 6-Fluoro-2-(3-methoxy-4-((1-benzyl-1H-1,2,3-triazol-4-yl)methoxy)phenyl)benzothiazole] | 22.8 ± 4.9 | > 100 | > 100 | 77.6 ± 43.3 | > 100 | 180 to 183 | – | –
2 | COc1cc(-c2nc3ccc(Cl)cc3s2)ccc1OCc1ccccn1 [18c] | 41.4 ± 8.1 | > 100 | 67.3 ± 7.8 | > 100 | 55.6 ± 34.6 | 173 to 176 | – | –
3 | Clc1ccc2nc(-c3ccc(OCc4c[nH]nn4)cc3)sc2c1 [21a, 6-Chloro-2-(4-((1H-1,2,3-triazol-4-yl)methoxy)phenyl)benzothiazole] | 12.6 ± 4.8 | > 100 | > 100 | > 100 | 6.8 ± 6.2 | 220 to 223 | 14.7 | 1.85
4 | c1ccc2sc(-c3ccc(OCc4c[nH]nn4)cc3)nc2c1 [23a, 2-(4-((1H-1,2,3-triazol-4-yl)methoxy)phenyl)benzothiazole] | 40.7 ± 5.7 | > 100 | 52.4 ± 18.4 | 95.6 ± 6.6 | 19 ± 4 | 204 to 207 | 5.26 | 2.14
5 | COc1cc(-c2nc3ccccc3s2)ccc1OCc1cn(Cc2ccccc2)nn1 [26c, 2-(3-Methoxy-4-((1-benzyl-1H-1,2,3-triazol-4-yl)methoxy)phenyl)benzothiazole] | 8.5 ± 6.4 | 76.7 ± 27.7 | 23.3 ± 15.3 | > 100 | 23.7 ± 5.2 | 170 to 173 | 3.24 | –
6 | COc1cc(-c2nc3ccc(F)cc3s2)ccc1OCC(=O)c1ccccc1 [16c, 6-Fluoro-2-(3-methoxy-4-(2-oxo-2-phenylethoxy)phenyl)benzothiazole] | 6.8 ± 6.2 | > 100 | > 100 | > 100 | > 100 | 178 to 181 | – | –
7 | Cl.Fc1cc(-c2nc3ccc(C4=NCCN4)cc3s2)ccc1OCc1c[nH]nn1 [36b, 2-(3-Fluoro-4-((1H-1,2,3-triazol-4-yl)methoxy)phenyl)-6-(4,5-dihydro-1H-imidazol-2-yl)benzothiazole hydrochloride] | 25.2 ± 1.3 | 32.6 ± 3.4 | 30 ± 1 | 38.3 ± 1.2 | 1.8 ± 0.4 | 234 to 237 | – | 14
8 | COc1cc(-c2nc3ccc(C4=NCCN4)cc3s2)ccc1OCC(=O)c1ccccc1.Cl [34c, 2-(3-Methoxy-4-(2-oxo-2-phenylethoxy)phenyl)-6-(4,5-dihydro-1H-imidazol-2-yl)benzothiazole hydrochloride] | 2.1 ± 0.3 | 4 ± 0.1 | 3.1 ± 0.2 | 6.3 ± 3 | 1.8 ± 0.7 | > 240 | – | –
9 | O=C(COc1ccc(-c2nc3ccc(F)cc3s2)cc1)c1ccccc1 [16a, 6-Fluoro-2-(4-(2-oxo-2-phenylethoxy)phenyl)benzothiazole] | 87.3 ± 6.9 | > 100 | > 100 | > 100 | > 100 | 164 to 167 | – | –
10 | Fc1ccc2nc(-c3ccc(OCc4ccccn4)cc3)sc2c1 [19a] | 1.1 ± 0.2 | > 100 | > 100 | > 100 | > 100 | 165 to 170 | – | –
11 | O=C(COc1ccc(-c2nc3ccccc3s2)cc1F)c1ccccc1 [17b, 2-(3-Fluoro-4-(2-oxo-2-phenylethoxy)phenyl)benzothiazole] | > 100 | > 100 | > 100 | > 100 | > 100 | 174 to 177 | – | –
12 | Cl.c1ccc(COc2ccc(-c3nc4ccc(C5=NCCN5)cc4s3)cc2)nc1 [35a, 2-(4-(Pyridin-2-ylmethoxy)phenyl)-6-(4,5-dihydro-1H-imidazol-2-yl)benzothiazole hydrochloride] | 2.7 ± 0.3 | 3.2 ± 0.3 | 18.9 ± 3.6 | 26.7 ± 2.1 | 1.4 ± 0.2 | > 250 | – | –
13 | Fc1ccc2nc(-c3ccc(OCc4cn(Cc5ccccc5)nn4)cc3)sc2c1 [25a, 6-Fluoro-2-(4-((1-benzyl-1H-1,2,3-triazol-4-yl)methoxy)phenyl)benzothiazole] | 8.2 ± 5.8 | 10 ± 0.01 | > 100 | > 100 | > 100 | 176 to 180 | – | –
14 | COc1cc(-c2nc3ccc(C4=NCCN4)cc3s2)ccc1OCc1cn(Cc2ccccc2)nn1.Cl [37c, 2-(3-Methoxy-4-((1-benzyl-1H-1,2,3-triazol-4-yl)methoxy)phenyl)-6-(4,5-dihydro-1H-imidazol-2-yl)benzothiazole hydrochloride] | 2.6 ± 0.1 | 4.8 ± 3.5 | 3.4 ± 0.2 | 4.5 ± 2.7 | 3 ± 1 | > 240 | 1.6 | –
15 | COc1cc(-c2nc3ccc(C4=NCCCN4)cc3s2)ccc1OCc1c[nH]nn1 [40c] | > 100 | > 100 | > 100 | > 100 | > 100 | – | – | –

— PMC9785280, “Synthesis, Antiproliferative Evaluation and QSAR Analysis of Novel Halogen- and Amidino-Substituted Benzothiazoles and Benzimidazoles” (International Journal of Molecular Sciences, 2022)
